Source: PubChem BioAssay (NCI)
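Grown in 96-well plates, cells were treated for 48 hours with each compound at five concentrations. Insufficient inhibition: endpoint recorded as highest concentration tested. GI50 marks 50% less growth. TGI: concentration producing complete growth inhibition.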

Legend:
Assay in all cases: NCI anticancer screen, dose series, 48 h
EKVX NSCLC = system: EKVX NSCLC
MDA-MB-231 breast = system: MDA-MB-231 breast
SK-MEL-2 melanoma = system: SK-MEL-2 melanoma
TK-10 renal = system: TK-10 renal
SN12C renal = system: SN12C renal
OVCAR-3 ovarian = system: OVCAR-3 ovarian
OVCAR-5 ovarian = system: OVCAR-5 ovarian
MOLT-4 leukemia = system: MOLT-4 leukemia

Structure (SMILES)	TGI (EKVX NSCLC)	TGI (MDA-MB-231 breast)	TGI (SK-MEL-2 melanoma)	TGI (TK-10 renal)	TGI (SN12C renal)	TGI (OVCAR-3 ovarian)	TGI (OVCAR-5 ovarian)	GI50 (EKVX NSCLC)	GI50 (MOLT-4 leukemia)	TGI (MOLT-4 leukemia)	GI50 (MDA-MB-231 breast)	GI50 (SK-MEL-2 melanoma)	GI50 (TK-10 renal)	GI50 (SN12C renal)	GI50 (OVCAR-3 ovarian)	GI50 (OVCAR-5 ovarian)
C[N+](C)([O-])CCCNc1c2ccccc2nc2cccc([N+](=O)[O-])c12	0.901 µM	1.48 µM	0.421 µM	8.19 µM	1.43 µM	5.65 µM	1.57 µM									
CC(=N\O)/C(C)=N/O.CC(=N\O)/C(C)=N/O.CC(=N\O)/C(C)=N/O.CC(=N\O)/C(C)=N/O.[Cu].[Cu]	38.2 µM	35.6 µM	31.4 µM	33.2 µM	35.2 µM	43.7 µM	34 µM	19.4 µM	19.9 µM	47.4 µM	20.3 µM	17.4 µM	19.1 µM	18.8 µM	22.6 µM	19.3 µM
Cc1cc(=O)c2cc(N=Cc3ccc([N+](=O)[O-])o3)ccc2o1	> 100 µM	> 100 µM	> 100 µM	> 100 µM	> 100 µM	> 100 µM	> 100 µM			> 100 µM						
CNC(=O)c1c(NC(=O)c2cccc(C(F)(F)F)c2)sc2c1CCC(=O)C2	> 21.7 µM	1.88 µM	3.5 µM	> 40.8 µM	> 20.7 µM	2.04 µM	2.73 µM	0.593 µM	0.356 µM	4.63 µM	0.332 µM	0.874 µM	0.469 µM	0.361 µM	0.448 µM	0.465 µM
Cc1[nH]c(C(=O)Nc2ccc(C(=O)N3CCNCC3)cc2OC(C)C)c(Cl)c1Cl	15 µM	3.33 µM	3.79 µM	3.32 µM	4.28 µM	4.62 µM	4.04 µM	3.49 µM	2.32 µM	5.1 µM	1.67 µM	1.97 µM	1.8 µM	1.94 µM	2.19 µM	1.79 µM
COc1ccc(-c2nsc3c2NC(=O)CC3c2ccc3c(c2)OCO3)cc1 (centres undefined)		11.6 µM		> 100 µM	> 100 µM	10.4 µM	> 100 µM		1.29 µM	18.7 µM	1.13 µM		8.25 µM	2.55 µM	0.874 µM	3.19 µM
COc1ccc(Nc2ccnc(NCCNc3ccnc4cc(Cl)ccc34)n2)cc1		6.71 µM	4.11 µM	10.5 µM	18.4 µM	10.3 µM	7.13 µM		3.46 µM	16.2 µM	2.01 µM	2.25 µM	3.33 µM	3.73 µM	2.61 µM	1.29 µM
O=c1[nH]cnc2c1nnn2C1OC(CO)C(O)C1O (centres undefined)	> 100 µM	> 100 µM	> 100 µM	> 30.2 µM	> 100 µM	4.98 µM	> 100 µM	60.4 µM	2.44 µM	> 100 µM	4.49 µM	12.3 µM	1.5 µM	6.57 µM	0.816 µM	26.6 µM
CC1=C(SCc2ccccc2)C(=O)c2ccccc2C1=O	44 µM	41.3 µM	40.1 µM	36.9 µM	40.3 µM	23.1 µM	71.7 µM			4.51 µM						
CCN(CC)CCOc1ccc(Nc2ncc3cc(-c4c(Cl)cccc4Cl)c(=O)n(CCOC)c3n2)cc1	7.38 µM	0.813 µM	7.6 µM	0.832 µM	5.37 µM	2.96 µM	7.09 µM	0.796 µM	0.781 µM	5.41 µM	0.0432 µM	0.493 µM	0.0785 µM	0.0237 µM	0.483 µM	0.137 µM
COc1cc2c(c(OC)c1OC)-c1ccc(NNC(=S)N(Cc3cccc(C[N+](Cc4cccc(CNC56CC7CC(CC(C7)C5)C6)c4)(Cc4cccc(CNC56CC7CC(CC(C7)C5)C6)c4)Cc4cccc(CN(C(=S)NNc5ccc6c(cc5=O)[C@@H](NC(C)=O)CCc5cc(OC)c(OC)c(OC)c5-6)C56CC7CC(CC(C7)C5)C6)c4)c3)C34CC5CC(CC(C5)C3)C4)c(=O)cc1[C@@H](NC(C)=O)CC2 (some centres undefined)	8.46 µM	2.99 µM	2.76 µM	8.34 µM	6.9 µM	6.53 µM	5.03 µM	2.68 µM	0.562 µM	1.93 µM	0.994 µM	0.861 µM	3.66 µM	2.23 µM	1.66 µM	1.17 µM
CNc1nc(C)c(-c2nc(Nc3cccc(S(N)(=O)=O)c3)ncc2F)s1	3.78 µM	5.98 µM	0.0939 µM	1.17 µM	2.69 µM	14.4 µM	15.1 µM	0.0747 µM	0.0309 µM	0.185 µM	0.0416 µM	0.0358 µM	0.0644 µM	0.0313 µM	0.0302 µM	0.0324 µM
NC1C2C(CC(=O)O)OCC=C3CN4CCC1(C(=O)C(=O)O)C4CC32 (centres undefined)	> 100 µM	> 100 µM	> 100 µM	> 100 µM	> 100 µM	> 100 µM	> 100 µM			> 100 µM						
Nc1c(C(=O)c2cccc(-c3ccc[n+]([O-])c3)c2)cnn1-c1ccc(F)cc1F		> 25 µM	> 25 µM	> 25 µM	> 25 µM	> 25 µM	> 25 µM		> 25 µM	> 25 µM	> 25 µM	> 25 µM	> 25 µM	> 25 µM	> 25 µM	> 25 µM
O=C1c2ccccc2-c2c1c1ccc([N+](=O)[O-])cc1c(=O)n2CCNCCCNCCn1c2c(c3ccc([N+](=O)[O-])cc3c1=O)C(=O)c1ccccc1-2	28.2 µM	0.53 µM	21.7 µM	22.1 µM	4.04 µM	5.19 µM	6.42 µM	4.87 µM	0.005 µM	18.6 µM	0.033 µM	4 µM	1.27 µM	0.144 µM	0.638 µM	0.673 µM
OCCCCC#Cc1ccccc1C#Cc1ccccc1F	94.4 µM	36.6 µM	52.5 µM	49.7 µM	40.4 µM	43.6 µM	33.3 µM	29.4 µM	21.2 µM	49.8 µM	17 µM	23.9 µM	20.8 µM	18.1 µM	19.7 µM	16.2 µM

Structure (SMILES)	TGI (EKVX NSCLC)	TGI (MDA-MB-231 breast)	TGI (SK-MEL-2 melanoma)	TGI (TK-10 renal)	TGI (SN12C renal)	TGI (OVCAR-3 ovarian)	TGI (OVCAR-5 ovarian)	GI50 (EKVX NSCLC)	GI50 (MOLT-4 leukemia)	TGI (MOLT-4 leukemia)	GI50 (MDA-MB-231 breast)	GI50 (SK-MEL-2 melanoma)	GI50 (TK-10 renal)	GI50 (SN12C renal)	GI50 (OVCAR-3 ovarian)	GI50 (OVCAR-5 ovarian)
COc1ccc(C(O)c2cc3c(N)c(C(=O)Nc4cccc(Cl)c4C)sc3nc2C)cc1 (centres undefined)	2.16 µM	1.57 µM	1.84 µM	1.8 µM	1.61 µM	1.79 µM	1.92 µM	0.886 µM	0.846 µM	2.13 µM	0.781 µM	0.909 µM	0.871 µM	0.815 µM	0.814 µM	0.932 µM
C=C1C(=O)O[C@H]2[C@H]1CC/C(CNS(=O)(=O)c1ccc3ccccc3c1)=C\CC[C@@]1(C)O[C@@H]21	11.1 µM	5.36 µM	5.45 µM		7.13 µM	2.12 µM	4.82 µM	2.48 µM	1.56 µM	4.71 µM	2.15 µM	2.13 µM		2.15 µM	0.805 µM	1.99 µM
C=C1C(=O)O[C@H]2[C@H]1CC/C(CNC(=O)/C=C/c1cccc(OC)c1)=C\CC[C@@]1(C)O[C@@H]21	5.62 µM	4.07 µM	3.31 µM	2.5 µM	4.34 µM	2.45 µM	5.36 µM	1.85 µM	2.12 µM	7.36 µM	1.79 µM	1.47 µM	1.15 µM	1.53 µM	1.1 µM	2.05 µM
CCc1ccc(-c2ccc(=O)n(-c3ccc(S(N)(=O)=O)cc3)n2)cc1	> 100 µM	> 100 µM	38.9 µM	38.3 µM	> 100 µM	> 20.2 µM	> 100 µM	5.65 µM	0.884 µM	> 90 µM	14.6 µM	5.04 µM	13.2 µM	9.88 µM	0.957 µM	> 64.4 µM
ON(CCc1ccncc1)Cc1ccccc1	> 100 µM				> 100 µM	> 100 µM	> 100 µM			> 100 µM						
OCc1cccc(-c2ccc3ncc(-c4nc(NC5CC5)ncc4F)n3c2)c1	0.946 µM	1.04 µM	0.671 µM	> 100 µM	1.57 µM	1.09 µM		0.296 µM	0.266 µM		0.286 µM	0.244 µM	0.3 µM	0.281 µM	0.27 µM	
O=C(Nc1c(Cl)cc([N+](=O)[O-])cc1Cl)C(=O)C1C(=O)NC(=S)NC1=O	> 100 µM	> 100 µM	> 100 µM	> 100 µM	> 100 µM	> 100 µM	> 100 µM									
COC(=O)Nc1nc2ccc(Oc3ccc(NC(=O)Nc4cccc(Br)c4)cc3)cc2[nH]1	> 25 µM	> 25 µM		12 µM	> 25 µM	3.99 µM	> 25 µM	8.28 µM	4.03 µM	> 15.4 µM	5.74 µM		4.66 µM	4.65 µM	1.07 µM	> 11.9 µM
COc1ccc(Nc2ncccc2/C=C/C(=O)c2cc(OC)c(OC)c(OC)c2)cc1	4.01 µM	5.74 µM	2.99 µM		3.44 µM	2.99 µM	3.83 µM	1.8 µM	2.09 µM	5.45 µM	1.94 µM	1.47 µM		1.56 µM	1.64 µM	1.97 µM
Cn1c(=O)c(Oc2cccc(F)c2)cc2cnc(NC3CCOCC3)nc21		> 25 µM	> 25 µM	> 25 µM	> 25 µM	> 25 µM	> 25 µM				> 25 µM	> 25 µM	> 22 µM	> 25 µM	> 25 µM	> 25 µM
O=CN1N=C(c2ccc(Nc3ccnc4cc(Cl)ccc34)cc2)CC1c1ccccc1 (centres undefined)	> 100 µM	13.7 µM		38.5 µM	> 100 µM	7.71 µM	> 100 µM	4.94 µM	2.28 µM	6.4 µM	2.43 µM		9.51 µM	3.8 µM	2.78 µM	19.8 µM
Cc1ccc2c[c]1[Hg][CH2]COS2(=O)=O	38.5 µM	32 µM	38.4 µM	31.7 µM	30.9 µM		37.4 µM	21.5 µM	18.1 µM	34.1 µM	17.5 µM	21.4 µM	17.8 µM	17.2 µM		18.7 µM
CCN(CC)c1ccc(N=C2C=C(C(=O)Nc3ccc(S(C)(=O)=O)cc3)C(=O)c3ccccc32)c(C)c1	> 100 µM	> 100 µM		> 100 µM	> 100 µM	> 100 µM	> 100 µM	5.52 µM	> 100 µM	> 100 µM	4.53 µM		> 100 µM	> 100 µM	3.78 µM	> 100 µM
c1cc(C2CCCCC2)ccc1OCCCCCCN1CCNCC1	47.3 µM	3.29 µM	3.71 µM	3.24 µM	3.54 µM	3.57 µM	3.5 µM	5.76 µM			1.61 µM	1.82 µM	1.78 µM	1.79 µM	1.82 µM	1.75 µM
N#Cc1c2ccccc2c2n1-c1ccccc1OC(c1ccccc1)C2=O (centres undefined)		8.99 µM		20.7 µM	14.9 µM	49.7 µM	34 µM		4.47 µM	19.6 µM	2.78 µM		4.9 µM	3.48 µM	5.1 µM	5.37 µM
N#Cc1cccc(C(=O)c2cnn(-c3ccc(F)cc3)c2N)c1		> 25 µM	> 25 µM	> 25 µM	> 25 µM	> 25 µM	> 25 µM		> 25 µM	> 25 µM	> 25 µM	24.4 µM	> 25 µM	> 25 µM	> 25 µM	> 25 µM
